Here are results for four compounds from US20250235448A1, “COMBINATION THERAPY FOR TREATING CANCER” (AstraZeneca AB, priority 2022, published 2025).

For one series, the system named is LnCAP 95. The experiment in a line: Cell proliferation / viability assay (7 days after treatment), AC50 and HSA combination benefit. Type of series: cell-based. The settings on record: LnCAP 95 (mCRPC) cells; monotherapy; mean of two independent experiments each in triplicate. Here is the method: (§1) The following cell lines were originally obtained from ATCC:
(§2) Cell line identification was validated using the CellCheck assay (IDEXX Bioanalytics, Westbrook, ME, USA). All cell lines were validated free of virus Mycoplasma contamination using the MycoSEQ assay (Thermo Fisher Scientific, Waltham, MA, USA) or STAT-Myco assay (IDEXX Bioanalytics). All cell lines were grown RPMI-1640 growth media (Corning 17-105-CV) supplemented with 10% fetal bovine serum (FBS) or, when indicated, 10% charcoal stripped FBS (ThermoFisher Scientific, 12676029) and 2 mM glutamine.
(§3) Cells in 384-well or 96-well plates were dosed using an Echo 555 (LabCyte, San Jose, CA, USA) or using the HP D300e Digital Dispenser (HP Life Science Dispensing), respectively. Live cell count pre- and post-treatment (7 days after treatment) was determined using CellTiter-Glo as per manufacturer's instructions (Promega, Madison, WI, USA; G7570).
(§4) Cell viability was determined with the Sytox Green assay as described in Davies 2012 and the AC50 calculated. The HSA (Highest Single Agent) Synergy Score was calculated according to Bernenbaum 1989.

Another series deals with LnCAP. The series is described as above. Type of series: cell-based. Particulars: Homo sapiens; LnCAP (mHSPC) cells; monotherapy; mean of two independent experiments each in triplicate. As for the experimental part:
as §1, §2, §3, §4

A further series relates to CWR22Pc-R1-AD1. Described as above. Format: cell-based. Here is the method: as §1
Cell line identification was validated using the CellCheck assay (IDEXX Bioanalytics, Westbrook, ME, USA). All cell lines were validated free of virus Mycoplasma contamination using the MycoSEQ assay (Thermo Fisher Scientific, Waltham, MA, USA) or STAT-Myco assay (IDEXX Bioanalytics).
Live cell count pre- and post-treatment (7 days after treatment) was determined using CellTiter-Glo as per manufacturer's instructions (Promega, Madison, WI, USA; G7570).

The test system of the next series is non-metastatic CRPC. Particulars: patients with non-metastatic CRPC, ARAMIS trial; placebo 18.5 months; cited from earlier work.
For a further series, the system named is CYP3A4. The settings on record: literature statement (Gibbons 2015, Dirix 2016); cited from earlier work.

Like-named read-outs stand apart in the source and are kept apart here.

In the case of `CCc1cc2ncc(CN3CCN(c4ccc(C(=O)NC)nc4)CC3)cc2[nH]c1=O` [AZD5305, 5-{4-[(7-ethyl-6-oxo-5,6-dihydro-1,5-naphthyridin-3-yl)methyl]piperazin-1-yl}-N-methylpyridine-2-carboxamide], the AC50 stood at 700 nM in the series with LnCAP 95; 285 nM in the series on LnCAP; 5.66 nM with CWR22Pc-R1-AD1 (CWR22Pc-R1-AD1 (mCRPC) cells, monotherapy, mean of two independent experiments each in triplicate, read-out: AC50).

For the compound `CC(O)c1cc(C(=O)N[C@@H](C)Cn2ccc(-c3ccc(C#N)c(Cl)c3)n2)n[nH]1` (stereo partly drawn) [Darolutamide, N—((S)-1-(3-(3-chloro-4-cyanophenyl)-1H-pyrazol-1-yl)propan-2-yl)-5-(1-hydroxyethyl)-1H-pyrazole-3-carboxamide], the AC50 in the series with LnCAP 95 amounted to 17500 nM; in the series on LnCAP, 3630 nM; in the series on CWR22Pc-R1-AD1, 65.5 nM. Moreover, the metastasis free survival with non-metastatic CRPC was 40.4 months.

For the compound `O=C(c1cc(Cc2n[nH]c(=O)c3ccccc23)ccc1F)N1CCN(C(=O)C2CC2)CC1` [Olaparib], in the series with CYP3A4, the “CYP3A4 interaction (inducer / substrate)” value is “substrate of CYP3A4”.

On to `CNC(=O)c1ccc(N2C(=S)N(c3ccc(C#N)c(C(F)(F)F)c3)C(=O)C2(C)C)cc1F` [enzalutamide], for which the “CYP3A4 interaction (inducer / substrate)” value with CYP3A4 is given as “strong CYP3A4 inducer”.

As usually defined, the AC50 is the concentration at which the activity in the assay is half-maximal.
